Laboratory results reported in patent publication US8148391B2 (Cephalon, Inc., priority 2006, dated 2012).
Where two headings read alike, the source gives them in different places. One block for each molecule: values may come before it.

Tests used:
[1] = target: T1, c-Met (cytoplasmic domain) (Homo sapiens, UniProt P08581); assay: c-Met Kinase Assay (same methods as for ALK, with modifications); format: biochemical
T1 construct: 10 ng/mL c-Met (cytoplasmic domain, Invitrogen Corporation #PV3143); purchased Invitrogen Corporation PV3143
T1 sequence (P08581 956-1390 limits assumed): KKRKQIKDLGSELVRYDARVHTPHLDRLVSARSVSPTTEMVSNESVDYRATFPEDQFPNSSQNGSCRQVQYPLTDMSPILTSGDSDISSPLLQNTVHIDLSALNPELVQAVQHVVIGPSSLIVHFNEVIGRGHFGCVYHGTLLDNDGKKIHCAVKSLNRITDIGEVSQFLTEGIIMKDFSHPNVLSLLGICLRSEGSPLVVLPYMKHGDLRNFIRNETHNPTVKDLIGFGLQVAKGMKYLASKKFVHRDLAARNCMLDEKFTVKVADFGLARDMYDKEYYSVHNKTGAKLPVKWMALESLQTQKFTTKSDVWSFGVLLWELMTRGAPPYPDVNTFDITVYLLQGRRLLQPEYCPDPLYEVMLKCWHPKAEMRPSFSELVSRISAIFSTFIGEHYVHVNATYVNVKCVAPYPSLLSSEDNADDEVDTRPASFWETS
In short: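 This plate-based kinase format uses immobilized phospholipase C-γ as substrate, phosphorylated by c-Met cytoplasmic domain (10 ng/mL) at 37° C for 15 minutes.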

[2] = target: T2, baculovirus-expressed ALK (Homo sapiens, UniProt Q9UM73); assay: ALK Kinase Assay (ELISA-type, time-resolved fluorescence); format: biochemical
T2 construct: host or cells: baculovirus expression system
T2 sequence (Q9UM73 19-1620): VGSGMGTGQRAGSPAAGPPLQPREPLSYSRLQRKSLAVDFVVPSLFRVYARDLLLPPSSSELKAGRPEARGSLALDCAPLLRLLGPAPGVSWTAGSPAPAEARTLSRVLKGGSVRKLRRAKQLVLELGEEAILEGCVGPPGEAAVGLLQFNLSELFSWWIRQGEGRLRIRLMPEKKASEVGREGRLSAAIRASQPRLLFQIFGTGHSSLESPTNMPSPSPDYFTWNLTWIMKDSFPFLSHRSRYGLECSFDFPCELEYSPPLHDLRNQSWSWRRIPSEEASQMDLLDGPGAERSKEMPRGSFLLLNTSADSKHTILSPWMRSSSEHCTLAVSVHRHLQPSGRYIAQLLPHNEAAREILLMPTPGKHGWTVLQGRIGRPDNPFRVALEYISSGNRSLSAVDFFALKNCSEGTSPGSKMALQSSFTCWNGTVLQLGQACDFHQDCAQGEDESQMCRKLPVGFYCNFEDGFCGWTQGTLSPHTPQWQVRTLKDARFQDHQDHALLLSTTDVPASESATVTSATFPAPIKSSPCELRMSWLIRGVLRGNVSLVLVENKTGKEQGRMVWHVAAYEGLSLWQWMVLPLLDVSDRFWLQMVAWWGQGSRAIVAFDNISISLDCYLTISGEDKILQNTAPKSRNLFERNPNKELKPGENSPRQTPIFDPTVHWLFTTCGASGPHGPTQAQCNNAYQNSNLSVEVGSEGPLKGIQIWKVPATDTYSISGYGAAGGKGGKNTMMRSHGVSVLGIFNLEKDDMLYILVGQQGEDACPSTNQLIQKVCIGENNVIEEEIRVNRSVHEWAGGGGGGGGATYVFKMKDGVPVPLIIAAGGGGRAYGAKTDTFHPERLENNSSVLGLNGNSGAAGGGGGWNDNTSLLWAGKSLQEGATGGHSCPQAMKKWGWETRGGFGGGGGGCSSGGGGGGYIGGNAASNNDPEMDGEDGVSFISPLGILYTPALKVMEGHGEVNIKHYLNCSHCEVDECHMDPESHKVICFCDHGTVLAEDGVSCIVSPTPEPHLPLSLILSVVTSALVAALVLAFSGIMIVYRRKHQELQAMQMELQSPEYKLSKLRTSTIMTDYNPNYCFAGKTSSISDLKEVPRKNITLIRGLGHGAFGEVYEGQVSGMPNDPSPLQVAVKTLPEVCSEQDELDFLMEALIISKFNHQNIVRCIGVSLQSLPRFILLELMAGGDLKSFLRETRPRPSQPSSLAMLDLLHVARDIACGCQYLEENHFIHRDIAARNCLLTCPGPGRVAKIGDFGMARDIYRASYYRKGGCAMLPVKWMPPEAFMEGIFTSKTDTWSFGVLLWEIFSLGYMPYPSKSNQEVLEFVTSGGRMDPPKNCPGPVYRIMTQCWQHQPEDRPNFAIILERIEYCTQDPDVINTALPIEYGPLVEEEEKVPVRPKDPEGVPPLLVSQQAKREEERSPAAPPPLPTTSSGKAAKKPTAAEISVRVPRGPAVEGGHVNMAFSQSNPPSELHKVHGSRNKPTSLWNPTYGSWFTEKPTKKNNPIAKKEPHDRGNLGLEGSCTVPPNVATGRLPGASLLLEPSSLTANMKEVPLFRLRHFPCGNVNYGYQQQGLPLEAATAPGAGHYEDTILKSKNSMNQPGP
In short: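 Substrate coating: phospholipase C-γ, 10 μg/mL in TBS. Kinase step: 30 ng/ml ALK, 15 min, 37° C. Detection and analysis: Eu-N1 PT66 antibody, with IC50 fitted as a sigmoidal variable-slope dose-response curve.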

[3] = c-Met kinase inhibition, 1 μM ATP, read-out: cMet Activity
[4] = ALK kinase inhibition, 1 μM ATP, read-out: ALK Activity
[5] = 1 μM ATP (Km level), read-out: cMet Activity (c-Met Kinase Inhibition, IC50)
[6] = 1 μM ATP (Km level), read-out: ALK Activity (ALK Kinase Inhibition, IC50)
[7] = c-Met kinase inhibition, 1 μM ATP (Km level), read-out: cMet Activity
[8] = ALK kinase inhibition, 1 μM ATP (Km level), read-out: ALK Activity
[9] = 1 μM ATP (Km level), 10 ng/mL c-Met, read-out: cMet Activity (c-Met kinase inhibition, IC50 class)
[10] = 1 μM ATP (Km level), 30 ng/ml ALK, 37° C., 15 minutes, read-out: ALK Activity (ALK kinase inhibition, IC50 class)

IC50 [1, 5]: 1000 to 10000 nM
IC50 [2, 6]: 100 to 1000 nM
Compound: CNC(=O)c1cccc(Nc2nc(Nc3ccc4c(c3)C(C)(C)CCC(=O)N4)ncc2Cl)c1 [Example 672, 3-[5-Chloro-2-(5,5-dimethyl-2-oxo-2,3,4,5-tetrahydro-1H-benzo[b]azepin-7-ylamino)-pyrimidin-4-ylamino]-N-methyl-benzamide]

IC50 [1, 3]: < 100 nM
IC50 [2, 4]: < 100 nM
Compound: CNC(=O)c1cccc(F)c1Nc1nc(Nc2ccc3c(c2)-n2ccnc2CCC3)ncc1Cl [Example 1837, 2-[5-Chloro-2-(5,6-dihydro-4H-3,10b-diaza-benzo[e]azulen-9-ylamino)-pyrimidin-4-ylamino]-3-fluoro-N-methyl-benzamide]

IC50 [1, 5]: < 100 nM
IC50 [2, 6]: < 100 nM
Compound: CC1(C)CCC(=O)Nc2cc(Nc3ncc(Cl)c(Nc4c(F)cccc4OCC#N)n3)ccc21 [Example 930, {2-[5-Chloro-2-(5,5-dimethyl-2-oxo-2,3,4,5-tetrahydro-1H-1-benzazepin-8-ylamino)-pyrimidin-4-ylamino]-3-fluoro-phenoxy}-acetonitrile]

IC50 [1, 5]: > 10000 nM
IC50 [2, 6]: 100 to 1000 nM
Compound: Cn1ccnc1-c1ccccc1Nc1nc(Nc2cccc3c2OCCCC3(C)C)ncc1Cl [Example 879, 5-Chloro-N*2*-(5,5-dimethyl-2,3,4,5-tetrahydro-benzo[b]oxepin-9-yl)-N*4*-[2-(1-methyl-1H-imidazol-2-yl)-phenyl]-pyrimidine-2,4-diamine]

IC50 [1, 7]: 1000 to 10000 nM
IC50 [2, 8]: < 100 nM
Compound: CCN1CCN(CC)c2cc(Nc3ncc(Cl)c(Nc4ccccc4NS(C)(=O)=O)n3)c(Cl)cc2C1 [Example 431, N-{2-[5-Chloro-2-(7-chloro-1,4-diethyl-2,3,4,5-tetrahydro-1H-benzo[e][1,4]diazepin-8-ylamino)-pyrimidin-4-ylamino]-phenyl}-methanesulfonamide]

IC50 [1, 3]: < 100 nM
IC50 [2, 4]: < 100 nM
Compound: CCN1CCCOc2cc(Nc3ncc(Cl)c(Nc4c(F)cccc4C(=O)NC)n3)c(F)cc21 [Example 1691, 2-[5-Chloro-2-(9-ethyl-2-fluoro-6,7,8,9-tetrahydro-5-oxa-9-aza-benzocyclohepten-3-ylamino)-pyrimidin-4-ylamino]-3-fluoro-N-methyl-benzamide]

IC50 [1, 7]: 100 to 1000 nM
IC50 [2, 8]: < 100 nM
Compound: CN1CCCCc2cc(Nc3ncc(Cl)c(Nc4ccccc4NS(C)(=O)=O)n3)ccc21 [Example 106, N-{2-[5-Chloro-2-(1-methyl-2,3,4,5-tetrahydro-1H-benzo[b]azepin-7-ylamino)-pyrimidin-4-ylamino]-phenyl}-methanesulfonamide]

IC50 [1, 5]: > 10000 nM
IC50 [2, 6]: > 10000 nM
Compound: COc1ccc2c(c1Nc1ncc(Cl)c(Nc3ccccc3-c3nccn3C)n1)NC(=O)CCC2(C)C [Example 998, 9-{5-Chloro-4-[2-(1-methyl-1H-imidazol-2-yl)-phenylamino]-pyrimidin-2-ylamino}-8-methoxy-5,5-dimethyl-1,3,4,5-tetrahydro-benzo[b]azepin-2-one]

IC50 [1, 7]: 1000 to 10000 nM
IC50 [2, 8]: < 100 nM
Compound: CNC(=O)c1ccccc1Nc1nc(Nc2ccc3c(c2OC)CCCC(=O)N3CCOC)ncc1Cl [Example 126, 2-{5-Chloro-2-[6-methoxy-1-(2-methoxy-ethyl)-2-oxo-2,3,4,5-tetrahydro-1H-benzo[b]azepin-7-ylamino]-pyrimidin-4-ylamino}-N-methyl-benzamide]

IC50 [1, 3]: 100 to 1000 nM
IC50 [2, 4]: 100 to 1000 nM
Compound: C#CCOc1cccc(F)c1Nc1nc(Nc2ccc3c(c2)CCOC(=O)N3C)ncc1Cl [Example 1779, 2-[5-Chloro-4-(2-fluoro-6-prop-2-ynyloxy-phenylamino)-pyrimidin-2-ylamino]-5-methyl-8,9-dihydro-5H-7-oxa-5-aza-benzocyclohepten-6-one]

IC50 [1, 7]: > 10000 nM
IC50 [2, 8]: 100 to 1000 nM
Compound: Cn1ccnc1-c1ccccc1Nc1nc(Nc2ccc3c(c2)CCC(F)(F)CC3)ncc1Cl [Example 219, 5-Chloro-N*2*-(7,7-difluoro-6,7,8,9-tetrahydro-5H-benzocyclohepten-2-yl)-N*4*-[2-(1-methyl-1H-imidazol-2-yl)-phenyl]-pyrimidine-2,4-diamine]

Continued, molecule first:

Compound: CCN1C(=O)C(NC(=O)COC)CC(C)(C)c2ccc(Nc3ncc(Cl)c(Nc4c(F)cccc4C(=O)NC)n3)cc21 (stereo not drawn) [Example 1644, 2-{5-Chloro-2-[1-ethyl-3-(2-methoxy-acetylamino)-5,5-dimethyl-2-oxo-2,3,4,5-tetrahydro-1H-benzo[b]azepin-8-ylamino]-pyrimidin-4-ylamino}-3-fluoro-N-methyl-benzamide]
IC50 [1, 3]: < 100 nM
IC50 [2, 4]: 100 to 1000 nM

Compound: C#CCNC(=O)c1cccc(F)c1Nc1nc(Nc2ccc3c(c2)CCN(C(=O)C2COCCO2)CC3)ncc1Cl (stereo not drawn) [Example 640, 2-{5-Chloro-2-[3-([1,4]dioxane-2-carbonyl)-2,3,4,5-tetrahydro-1H-benzo[d]azepin-7-ylamino]-pyrimidin-4-ylamino}-3-fluoro-N-prop-2-ynyl-benzamide]
IC50 [1, 5]: < 100 nM
IC50 [2, 6]: 100 to 1000 nM

Compound: NC(=O)C1C2C=CC(C2)C1Nc1nc(Nc2ccc3c(c2)CCC(N2CCOCC2)CC3)ncc1Cl (stereo not drawn) [Example 867, 3-[5-Chloro-2-(7-morpholin-4-yl-6,7,8,9-tetrahydro-5H-benzocyclohepten-2-ylamino)-pyrimidin-4-ylamino]-bicyclo[2.2.1]hept-5-ene-2-carboxylic acid amide]
IC50 [1, 5]: 100 to 1000 nM
IC50 [2, 6]: < 100 nM

Compound: CNC(=O)c1scc(C)c1Nc1nc(Nc2ccc3c(c2)NC(=O)CN(C)C3)ncc1Cl [Example 1868, 3-[5-Chloro-2-(4-methyl-2-oxo-2,3,4,5-tetrahydro-1H-benzo[e][1,4]diazepin-8-ylamino)-pyrimidin-4-ylamino]-4-methyl-thiophene-2-carboxylic acid methylamide]
IC50 [1, 3]: < 100 nM
IC50 [2, 4]: 100 to 1000 nM

Compound: CNC(=O)CN1CCc2ccc(Nc3ncc(Cl)c(Nc4ccc(N5CCOCC5)cc4OC)n3)cc2CC1 [Example 1127, 2-{7-[5-Chloro-4-(2-methoxy-4-morpholin-4-yl-phenylamino)-pyrimidin-2-ylamino]-1,2,4,5-tetrahydro-benzo[d]azepin-3-yl}-N-methyl-acetamide]
IC50 [1, 9]: 1000 to 10000 nM
IC50 [2, 10]: < 100 nM

Compound: CCN1CCCC(C)(C)c2ccc(Nc3ncc(Cl)c(N[C@H]4[C@@H](C(N)=O)[C@@H]5C=C[C@H]4C5)n3)cc21 [Example 1634, (1S,2S,3R,4R)-3-[5-Chloro-2-(1-ethyl-5,5-dimethyl-2,3,4,5-tetrahydro-1H-benzo[b]azepin-8-ylamino)-pyrimidin-4-ylamino]-bicyclo[2.2.1]hept-5-ene-2-carboxylic acid amide]
IC50 [1, 3]: 1000 to 10000 nM
IC50 [2, 4]: < 100 nM

Compound: COc1cc2c(cc1Nc1ncc(Cl)c(Nc3ccccc3S(=O)(=O)N3CCC(O)C3)n1)CCC(N1CCN(C)CC1)CC2 (stereo not drawn) [Example 1098, 1-(2-{5-Chloro-2-[3-methoxy-7-(4-methyl-piperazin-1-yl)-6,7,8,9-tetrahydro-5H-benzocyclohepten-2-ylamino]-pyrimidin-4-ylamino}-benzenesulfonyl)-pyrrolidin-3-ol]
IC50 [1, 9]: 1000 to 10000 nM
IC50 [2, 10]: < 100 nM

Compound: COCCN1CCc2ccc(Nc3ncc(Cl)c(NCC(C)NS(C)(=O)=O)n3)cc2CC1 (stereo not drawn) [Example 301, N-(2-{5-Chloro-2-[3-(2-methoxy-ethyl)-2,3,4,5-tetrahydro-1H-benzo[d]azepin-7-ylamino]-pyrimidin-4-ylamino}-1-methyl-ethyl)-methanesulfonamide]
IC50 [1, 7]: 1000 to 10000 nM
IC50 [2, 8]: 100 to 1000 nM

Compound: C#CCNC(=O)c1cccc(F)c1Nc1nc(Nc2ccc3c(c2)NC(=O)CCC3)ncc1Cl [Example 1404, 2-[5-Chloro-2-(2-oxo-2,3,4,5-tetrahydro-1H-benzo[b]azepin-8-ylamino)-pyrimidin-4-ylamino]-3-fluoro-N-prop-2-ynyl-benzamide]
IC50 [1, 9]: 100 to 1000 nM
IC50 [2, 10]: 100 to 1000 nM

Compound: CCN1C(=O)CCCc2ccc(Nc3ncc(Br)c(Nc4c(F)cccc4C(=O)NC)n3)cc21 [Example 359, 2-[5-Bromo-2-(1-ethyl-2-oxo-2,3,4,5-tetrahydro-1H-benzo[b]azepin-8-ylamino)-pyrimidin-4-ylamino]-3-fluoro-N-methyl-benzamide]
IC50 [1, 7]: < 100 nM
IC50 [2, 8]: < 100 nM

Compound: CCN1C(=O)CCCc2c1ccc(Nc1ncc(Cl)c(N[C@H]3[C@@H](C(=O)NC)[C@@H]4C=C[C@H]3C4)n1)c2OC (relative stereo) [Example 601, (2-exo-3-exo)-3-[5-Chloro-2-(1-ethyl-6-methoxy-2-oxo-2,3,4,5-tetrahydro-1H-benzo[b]azepin-7-ylamino)-pyrimidin-4-ylamino]-bicyclo[2.2.1]hept-5-ene-2-carboxylic acid methylamide]
IC50 [1, 5]: > 10000 nM
IC50 [2, 6]: < 100 nM

Compound: COc1cc2c(cc1Nc1ncc(Cl)c(Nc3ccc(N4CCOCC4)cc3OC)n1)CCOC(=O)N2C [Example 1506, 2-[5-Chloro-4-(2-methoxy-4-morpholin-4-yl-phenylamino)-pyrimidin-2-ylamino]-3-methoxy-5-methyl-8,9-dihydro-5H-7-oxa-5-aza-benzocyclohepten-6-one]
IC50 [1, 3]: > 10000 nM
IC50 [2, 4]: < 100 nM

Compound: CNC(=O)c1ccccc1Nc1nc(Nc2ccc3c(c2)C2CCC(C3)N2S(C)(=O)=O)ncc1Cl (racemic) [Example 102, (+/−)-2-[5-Chloro-2-(12-methanesulfonyl-12-aza-tricyclo[7.2.1.0*2,7*]dodeca-2(7),3,5-trien-4-ylamino)-pyrimidin-4-ylamino]-N-methyl-benzamide]
IC50 [1, 7]: < 100 nM
IC50 [2, 8]: < 100 nM
